In the supplement of paper PMC12317010:
Counter-ions that a name gives are not always drawn.

Experiment: collision cross section in nitrogen (drift tube, single-field); higher = larger gas-phase ion size
[1] = ion type: [M-H], ion source: ESI, ion mode: Negative
[2] = ion type: [M+H], ion source: ESI, ion mode: Positive
[3] = ion type: [M+H], ion source: APCI, ion mode: Positive
[4] = ion type: [M+Na], ion source: ESI, ion mode: Positive
[5] = ion type: [M+], ion source: APCI, ion mode: Positive
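Further: chemical standards at 10 µM analysed by drift tube IMS-QTOF MS in about 3.95 torr nitrogen, mean of duplicate injections differing ≤1%, mass error below 10 ppm.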

| SMILES | collision cross section in nitrogen [1] [Å²] | collision cross section in nitrogen [2] [Å²] | collision cross section in nitrogen [3] [Å²] | collision cross section in nitrogen [4] [Å²] | collision cross section in nitrogen [5] [Å²] |
| --- | --- | --- | --- | --- | --- |
| O=S(=O)(O)c1ccc(N=Nc2c(O)ccc3ccccc23)c2ccccc12 [C.I. Acid Red 88, monosodium salt] | 193.7 | – | – | – | – |
| O=C(Nc1ccc([N+](=O)[O-])cc1Cl)c1cc(Cl)ccc1O [5-Chloro-N-(2-chloro-4-nitrophenyl)-2-hydroxybenzamide] | 164.6 | – | – | – | – |
| CC1=NN(c2ccccc2)C(=O)C1 [1-Phenyl-3-methyl-5-pyrazolone] | 137.8 | 137.7 | – | – | – |
| COc1ccc2nc(N)sc2c1 [6-Methoxy-2-benzothiazolamine] | – | 136.6 | 136.6 | – | – |
| CCOC(=O)NC(=S)Nc1ccccc1NC(=S)NC(=O)OCC [Thiophanate] | – | 186.6 | 187 | 189.6 | 187.5 |
| CC(=O)Nc1ccc2c(c1)Cc1cc(NC(C)=O)ccc1-2 [2,7-Acetylaminofluorene] | 174.7 | 175.7 | 176.3 | 180.9 | 167.4 |
| CCCc1ccccc1O [2-Propylphenol] | 129.6 | – | – | – | – |
| Cc1cc(O)cc(C)c1Cl [4-Chloro-3,5-dimethylphenol] | 131.7 | – | – | – | – |
| O=c1ccc(=O)[nH][nH]1 [Maleic hydrazide] | 117.8 | – | – | – | – |
| CC(C)c1ccc(C(=O)N=C(N)N)cc1S(C)(=O)=O [Cariporide mesylate] | 169.3 | 173.6 | 175.1 | 178.2 | – |
| Cn1cc[nH]c1=S [Methimazole] | – | 118.1 | 116.9 | – | – |
| O=C(Nc1ccccc1)c1ccccc1I [Benodanil] | 155.4 | 146.3 | 146.6 | 161.1 | – |
| COP(=O)(OC)SCn1c(=O)oc2cc(Cl)cnc21 [Azamethiphos] | – | 161.5 | 160.6 | 171.2 | – |
| CNCCCC12CCC(c3ccccc31)c1ccccc12 [Maprotiline hydrochloride] | – | 164.3 | 164.1 | – | – |
| CNC(=O)[C@H]1O[C@@H](n2cnc3c(NCc4cc(Cl)ccc4OCc4cc(C)no4)ncnc32)[C@H](O)[C@@H]1N | – | 216.2 | 216.1 | 223.6 | – |
| CC(C)C(=O)Nc1ccc([N+](=O)[O-])c(C(F)(F)F)c1 [Flutamide] | 154.9 | – | – | – | – |
| CCCCCCCCO[C@@H]1O[C@H](CO)[C@@H](O)[C@H](O)[C@H]1O [Octyl beta-D-glucopyranoside] | 180.1 | – | – | 181.2 | – |
| CCCCCCC(O)CCCCCCCCCCC(=O)OC (stereo not given) [Methyl 12-hydroxyoctadecanoate] | – | – | – | 194.2 | – |
| C[Si](Cn1cncn1)(c1ccc(F)cc1)c1ccc(F)cc1 [Flusilazole] | – | 174.9 | 176.6 | – | – |
| CCCN(CC)CC1COC2(CCC(C(C)(C)C)CC2)O1 (stereo not given) [Spiroxamine] | – | 176.6 | – | – | – |
| Clc1cccc(Cl)c1Cl [1,2,3-Trichlorobenzene] | – | – | – | 144.8 | – |
| CCCCOCCOC(=O)CCCCCCCCC(=O)OCCOCCCC [Bis(2-butoxyethyl) decanedioate] | – | – | – | 197.8 | – |
| N#Cc1ccc(N(CC(N)=O)CC(F)(F)F)cc1C(F)(F)F | 163.7 | – | – | – | – |
| CC(C)(C)CC(C)(C)c1ccc(O)c(-n2nc3ccccc3n2)c1 [Octrizole] | 190 | – | 186.3 | – | – |
| Nc1ccc(S(=O)(=O)c2ccc(N)cc2)cc1 [Dapsone] | 157.9 | 155 | 155.5 | 170.7 | – |
| CCCCOC(=O)CCCCCCCC(=O)OCCCC [Dibutyl azelate] | 176 | – | – | 191.2 | – |
| CC(C)c1ccc(S(=O)(=O)O)cc1 [Sodium 4-isopropylbenzenesulfonate] | 147.5 | – | – | – | – |
